The target of test [1] is T1, IKZF1 Ikaros (Homo sapiens, UniProt Q13422+Q96SW2). Briefly: Human Regulatory T Cell Degradation Assay, IKZF1. The test is classed as cell-based. Details: Cryopreserved healthy donor human peripheral blood mononuclear cells (PBMC); endogenous in cells; host or cells: human PBMC from healthy donors (CD8+ T cells by flow cytometry). Conditions: human regulatory T cells, 20 hours; for Dmax: Regulatory T cell, 100% = complete degradation, read-out: IKZF1 Ikaros max % deg. observed; for DC50: concentration reducing protein level by 50% vs DMSO. Here is the method:
Cryopreserved human regulatory T cells were thawed in RPMI+10% FBS+20 ng/mL IL-2. After being spun at 1200 rpm for 5 mins, the cells were resuspended in RPMI+10% FBS+20 ng/mL and rested at 37° C. with 5% CO2 for 3 hours. The cells were then plated at 40,000 cells/well in 40 μL RPMI+10% FBS+20 ng/ml human IL-2 in a 384 well cell culture plate prior to using acoustic dispensing technology (ECHO 555) for adding compounds of interest. Cell cultures were incubated for 20 hours at 37° C. and 5% CO2. In order to facilitate analysis, cell cultures were spun down at 1200 rpm for 5 minutes and the supernatant was discarded using an EL406 plate washer. After washing three times with 70 μL PBS, cell pellets were resuspended in 50 μL of near IR viability staining solution (Life Technologies, Cat #L34975) and incubated for 30 minutes on ice protected from light. Cells were washed three times with 70 μL PBS+0.5% BSA using an EL406 plate washer. After shaking the plate to dislodge the cell pellet, cells were resuspended in 50 μL of Fixation Buffer (eBioScience FoxP3 buffer set 00-5523-00) for 60 minutes at room temperature. After centrifuging and discarding the supernatant, cells were permeabilized with 50 μL of permeabilization buffer (eBioScience FoxP3 buffer set 00-5523-00) for 10 minutes at room temperature. Following permeabilization, cells were spun down and the supernatant was replaced with 30 μL fluorescently labelled antibodies against the intracellular targets Helios (Helios-APC [BioLegend, Cat #137222, 1:50])]), Aiolos, and Ikaros 1× Permeabilization buffer and staining reactions were incubated for 1 bour at room temperature; protected from light. Subsequently, 30 μL of 1× Permeabilization buffer was added prior to centrifuging the cells and discarding the supernatant. Stained cells were resuspended in 30 μL of flow cytometry staining buffer (PBS+0.5% BSA) and analyzed using an Intellicyt Ique Plus flow cytometer.
Table B-1 lists the maximum observed degradation of the IKZF1 protein and IKZF2 protein as measured in the Human Regulatory T Cell Degradation assay. The results in Table B-1 were rounded to two digits. In the Human Regulatory T Cell Degradation assay, a value of 100% indicated no detectable protein remaining or complete degradation of the protein; and a value of 0% indicated no detectable degradation of the protein by the test compound.

Test [2] has as its target T1, IKZF1 Ikaros. Briefly: Human CD8^+ T Cell Reprogramming Assay, IKZF1. The test is classed as cell-based. Details: Cryopreserved healthy donor human peripheral blood mononuclear cells (PBMC); endogenous in cells; host or cells: human PBMC from healthy donors (CD8+ T cells by flow cytometry). Conditions: human PBMC, CD8+ T cells; for Dmax: human, 24 h, read-out: IKZF1 Ikaros Maximum Observed Degradation. As for the experimental part: Cryopreserved healthy donor human peripheral blood mononuclear cells (PBMC) from healthy donors were thawed and seeded at 500,000 cells/well of 96-well round bottom plates in RPMI 1640 media (Gibco) supplemented with 10% FBS, Pen/Strep (Gibco), MEM-NEAA (Gibco), and sodium pyruvate (Gibco). Cells were treated with titrated doses of compound for 24 hours at 37° C., 5% CO2 before analyzing by flow cytometry.
For flow cytometry staining, cells were washed twice with flow cytometry staining buffer (Thermo Fisher) and incubated in Human Tru-stain Fc block (Biolegend) for 10 minutes before adding eFluor780 viability dye (Thermo Fisher) and surface marker antibody cocktail containing LD-eFluor780, CD3-BUV-395, CD4-BUV805, CD8-FITC, and CD25-BV605 for 30 minutes at 4° C. Cells were then fixed and permeabilized by incubation with permeabilization buffer (eBioscience FoxP3 buffer set 00-5523-00) for 30 minutes at 4° C. as per the kit manufacturer's instructions. Cells were washed twice with the Perm/Wash buffer supplied in the kit as per the manufacturer's instructions and incubated overnight at 4° C. with an intracellular antibody cocktail comprised of antibodies specific for the transcription factors (i.e., Foxp3-BV421, HELIOS-PE-Cy7, EOS-PE, IKAROS-PECF594, AIOLOS-AF647). Cells were washed twice with Perm/Wash buffer and resuspended in flow cytometry staining buffer (Thermo Fisher) prior to acquisition. Sample acquisition and analysis was performed using a BD LSRFortessa (BD Biosciences) flow cytometer. Single-stain controls for each fluorochrome were prepared using UltraComp eBead Compensation Beads (Thermo Fisher). Data were analyzed using FlowJo version 10 and GraphPad Prism Software.
Table D-1 lists the maximum observed degradation of the IKZF1 protein and IKZF3 protein as measured in the Human CD8^+ T Cell Reprogramming assay. The results in Table D-1 were rounded to two digits. In the Human CD8^+ T Cell Reprogramming assay, a value of 100% indicated no detectable protein remaining or complete degradation of the protein; and a value of 0% indicated no detectable degradation of the protein by the test compound.

SMILES strings stand for the structures. Some results are limits rather than exact numbers.

T1 sequence (Q13422 whole entry): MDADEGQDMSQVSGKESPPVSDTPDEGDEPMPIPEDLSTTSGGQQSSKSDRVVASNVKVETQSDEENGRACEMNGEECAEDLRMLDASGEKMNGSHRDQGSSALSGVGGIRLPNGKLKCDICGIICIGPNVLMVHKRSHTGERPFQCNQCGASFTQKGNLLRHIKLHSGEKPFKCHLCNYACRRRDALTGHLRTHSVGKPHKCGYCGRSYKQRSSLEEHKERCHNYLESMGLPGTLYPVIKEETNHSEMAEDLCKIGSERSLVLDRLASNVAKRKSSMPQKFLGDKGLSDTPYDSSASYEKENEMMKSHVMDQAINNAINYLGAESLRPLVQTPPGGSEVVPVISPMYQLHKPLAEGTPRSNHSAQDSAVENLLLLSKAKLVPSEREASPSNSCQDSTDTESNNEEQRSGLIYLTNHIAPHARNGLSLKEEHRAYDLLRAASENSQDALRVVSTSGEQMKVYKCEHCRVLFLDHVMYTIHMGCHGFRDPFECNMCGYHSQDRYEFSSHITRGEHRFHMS
T1 sequence (Q96SW2 whole entry): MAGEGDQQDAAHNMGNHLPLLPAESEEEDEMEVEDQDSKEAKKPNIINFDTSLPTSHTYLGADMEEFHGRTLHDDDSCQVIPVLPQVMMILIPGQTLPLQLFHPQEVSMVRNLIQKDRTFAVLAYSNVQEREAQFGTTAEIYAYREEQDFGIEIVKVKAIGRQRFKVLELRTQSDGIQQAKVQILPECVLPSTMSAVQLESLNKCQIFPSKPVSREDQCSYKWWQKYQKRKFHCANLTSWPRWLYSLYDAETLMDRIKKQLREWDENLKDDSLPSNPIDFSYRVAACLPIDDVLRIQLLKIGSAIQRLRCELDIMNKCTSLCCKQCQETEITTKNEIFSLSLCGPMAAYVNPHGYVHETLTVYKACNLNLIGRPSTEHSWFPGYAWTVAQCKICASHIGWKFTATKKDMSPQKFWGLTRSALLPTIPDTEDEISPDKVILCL
T1 sequence (Q16531 whole entry partner): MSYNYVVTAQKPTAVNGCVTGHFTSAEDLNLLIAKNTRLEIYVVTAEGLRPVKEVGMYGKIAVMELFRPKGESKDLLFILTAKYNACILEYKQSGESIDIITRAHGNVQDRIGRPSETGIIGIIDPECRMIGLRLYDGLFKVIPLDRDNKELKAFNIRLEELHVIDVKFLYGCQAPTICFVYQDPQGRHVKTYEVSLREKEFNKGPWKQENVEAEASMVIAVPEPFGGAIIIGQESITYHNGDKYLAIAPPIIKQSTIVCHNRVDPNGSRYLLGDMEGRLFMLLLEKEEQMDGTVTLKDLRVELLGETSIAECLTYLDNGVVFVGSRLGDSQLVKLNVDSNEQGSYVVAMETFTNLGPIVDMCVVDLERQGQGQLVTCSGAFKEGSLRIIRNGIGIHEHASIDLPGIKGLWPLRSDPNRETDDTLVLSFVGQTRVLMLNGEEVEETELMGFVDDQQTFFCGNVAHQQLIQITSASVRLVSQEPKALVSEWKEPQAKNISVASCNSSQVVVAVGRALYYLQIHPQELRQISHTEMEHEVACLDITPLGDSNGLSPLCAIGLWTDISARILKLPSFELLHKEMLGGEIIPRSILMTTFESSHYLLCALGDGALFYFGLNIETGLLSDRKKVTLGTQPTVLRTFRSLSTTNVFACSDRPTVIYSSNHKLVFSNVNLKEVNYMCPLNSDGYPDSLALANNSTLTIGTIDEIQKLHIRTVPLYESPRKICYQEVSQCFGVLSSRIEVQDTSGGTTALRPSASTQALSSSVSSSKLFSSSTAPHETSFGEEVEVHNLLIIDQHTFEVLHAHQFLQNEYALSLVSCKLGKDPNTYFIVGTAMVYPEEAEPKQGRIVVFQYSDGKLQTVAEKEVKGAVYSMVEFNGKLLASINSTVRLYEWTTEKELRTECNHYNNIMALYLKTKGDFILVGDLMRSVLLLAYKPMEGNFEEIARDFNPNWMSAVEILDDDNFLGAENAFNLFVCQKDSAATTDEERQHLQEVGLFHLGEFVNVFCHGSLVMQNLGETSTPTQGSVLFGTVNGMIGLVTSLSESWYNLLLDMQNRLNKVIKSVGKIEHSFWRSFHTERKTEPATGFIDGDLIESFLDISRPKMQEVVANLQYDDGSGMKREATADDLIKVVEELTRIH

Regarding `O=C1CCC(n2cc(-c3ccccc3)oc2=O)C(=O)N1` (stereo not shown) [Comparative Compound A, 3-(2-oxo-5-phenyloxazol-3(2H)-yl)piperidine-2,6-dione], at IKZF1 Ikaros [1], the Dmax was found to be 24% and the DC50 is over 10 µM. The Dmax at IKZF1 Ikaros [2] (100% = complete degradation) was 74%.

For the compound `Cc1cc(-c2ccc(-c3cn(C4CCC(=O)NC4=O)c(=O)o3)c(F)c2)nc(N)c1OC(F)F` (stereo not shown) [Example 1, 3-(5-(4-(6-Amino-5-(difluoromethoxy)-4-methylpyridin-2-yl)-2-fluorophenyl)-2-oxooxazol-3(2H)-yl)piperidine-2,6-dione], the Dmax is 46% on IKZF1 Ikaros [1] and 68 to 69% on IKZF1 Ikaros [2] (100% = complete degradation). Besides, the DC50 on IKZF1 Ikaros [1] was over 10 µM; on IKZF1 Ikaros [2] (24 hours, concentration reducing protein level by 50% vs DMSO) it was 0.064 to 0.094 µM. For the same compound, the “IKZF1 Ikaros Maximum Observed Degradation” value on IKZF1 Ikaros [2] (24 hours, 100% = complete degradation, 1440 min) is on record as 69%.

As for `O=C1CCC(n2cc(-c3ccc(Br)cc3F)oc2=O)C(=O)N1` (stereo not shown) [Comparative Compound B, 3-(5-(4-bromo-2-fluorophenyl)-2-oxooxazol-3(2H)-yl)piperidine-2,6-dione], the Dmax at IKZF1 Ikaros [1] came out at 47%; at IKZF1 Ikaros [2] (100% = complete degradation), 17%.

These data come from US20260327216A1, “SUBSTITUTED OXAZOLONE COMPOUND FOR DECREASING LEVELS OF IKZF I-4 PROTEINS” (BRISTOL-MYERS SQUIBB COMPANY, priority 2023, published 2026).
